Consider one compound from ChEMBL document CHEMBL6096732 (J Med Chem, 2025).

For data set [1], the target named is Polyamine deacetylase HDAC10 (Homo sapiens, UniProt Q969S8). Description: Inhibition of recombinant HDAC10 (unknown origin) preincubated for 1 hr followed by substrate addition and measured after 2 hrs by fluorescence based micro plate reader analysis.
Data set [2] in a line: VRT (0 to t) in male Sprague-Dawley rat at 2 mg/kg, iv measured after 12 hrs by LC-MS/MS analysis. The format is ADME, organism-based. The note with it: in vivo.
The subject of data set [3] is 4T1. In words: Antitumor activity against mouse 4T1 cells implanted in female BALB/c mouse model assessed as induction of DNA damage by measuring increase in gamma-H2AX expression in tumor co-administrated orally with olaparib as once daily dose via gavage for 14 days by immunohistochemistry analysis. The format is functional, cell-based. Conditions: route po, time 14.0 day.

Data set [4] relates to B16-F10. Description: Cell cycle arrest in mouse B16-F10 cells assessed as decrease in G2/M phase population at 5 to 20 uM incubated for 48 hrs by RNase A/PI staining based flow cytometric analysis. Conditions: dose 5-20 µM. The format is functional. For orientation: Flow cytometry measures light scatter and fluorescence of single cells or particles in a stream.
For data set [5], the target named is Histone deacetylase 9 (Homo sapiens, UniProt Q9UKV0). In words: Inhibition of recombinant HDAC9 (unknown origin) using Boc-Lys(trifluoroacetyl)-AMC as substrate preincubated for 1 hr followed by substrate addition and measured after 2 hrs by fluorescence based micro plate reader analysis.
The target of data set [6] is Histone deacetylase 1 (Homo sapiens, UniProt Q13547). The note with it: dose 500.0 nM, time 3.0 hrs.
Data set [7] is described as follows: Toxicity in male C57BL/6 mouse implanted with mouse B16-F10 cells assessed as body weight loss at 50 mg/kg, po administered once daily for 14 days. In kind it is organism-based. Conditions: in vivo, 336 h, time 14 day.
Data set [8] can be described thus: Tmax in male Sprague-Dawley rat at 2 mg/kg, iv measured after 12 hrs by LC-MS/MS analysis. In kind it is ADME, organism-based. Conditions: in vivo.

Calls of active or inactive are those of the source. The calls are words filed in the database; no cut-off is given here. A value given as a limit tells only on which side of the number the result lay.

Histone deacetylase 9, sequence (Q9UKV0 whole entry): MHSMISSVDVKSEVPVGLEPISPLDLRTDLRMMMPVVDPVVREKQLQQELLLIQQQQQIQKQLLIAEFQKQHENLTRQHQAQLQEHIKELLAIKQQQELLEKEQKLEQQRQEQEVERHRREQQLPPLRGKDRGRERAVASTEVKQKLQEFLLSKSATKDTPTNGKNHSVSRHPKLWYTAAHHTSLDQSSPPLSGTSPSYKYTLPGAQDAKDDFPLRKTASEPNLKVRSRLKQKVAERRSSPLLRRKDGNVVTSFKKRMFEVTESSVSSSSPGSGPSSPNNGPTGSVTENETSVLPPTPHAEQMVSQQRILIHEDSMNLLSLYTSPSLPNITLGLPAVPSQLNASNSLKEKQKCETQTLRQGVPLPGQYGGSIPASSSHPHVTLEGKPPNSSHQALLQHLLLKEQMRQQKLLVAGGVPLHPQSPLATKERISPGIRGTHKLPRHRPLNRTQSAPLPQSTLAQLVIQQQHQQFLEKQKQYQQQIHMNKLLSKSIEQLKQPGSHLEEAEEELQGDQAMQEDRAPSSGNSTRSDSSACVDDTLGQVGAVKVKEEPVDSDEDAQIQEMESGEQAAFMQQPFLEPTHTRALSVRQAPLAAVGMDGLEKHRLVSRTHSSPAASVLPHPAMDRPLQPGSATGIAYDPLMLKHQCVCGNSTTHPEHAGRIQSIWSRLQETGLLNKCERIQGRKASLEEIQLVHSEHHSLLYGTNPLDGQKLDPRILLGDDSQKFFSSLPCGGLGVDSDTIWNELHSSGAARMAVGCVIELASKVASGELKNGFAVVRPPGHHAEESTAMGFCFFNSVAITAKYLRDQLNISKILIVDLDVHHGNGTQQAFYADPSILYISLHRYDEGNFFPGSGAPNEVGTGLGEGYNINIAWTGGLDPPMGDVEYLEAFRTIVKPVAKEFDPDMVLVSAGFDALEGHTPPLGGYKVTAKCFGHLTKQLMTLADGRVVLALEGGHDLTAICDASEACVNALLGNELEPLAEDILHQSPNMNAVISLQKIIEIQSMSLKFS
Histone deacetylase 1, sequence (Q13547 whole entry): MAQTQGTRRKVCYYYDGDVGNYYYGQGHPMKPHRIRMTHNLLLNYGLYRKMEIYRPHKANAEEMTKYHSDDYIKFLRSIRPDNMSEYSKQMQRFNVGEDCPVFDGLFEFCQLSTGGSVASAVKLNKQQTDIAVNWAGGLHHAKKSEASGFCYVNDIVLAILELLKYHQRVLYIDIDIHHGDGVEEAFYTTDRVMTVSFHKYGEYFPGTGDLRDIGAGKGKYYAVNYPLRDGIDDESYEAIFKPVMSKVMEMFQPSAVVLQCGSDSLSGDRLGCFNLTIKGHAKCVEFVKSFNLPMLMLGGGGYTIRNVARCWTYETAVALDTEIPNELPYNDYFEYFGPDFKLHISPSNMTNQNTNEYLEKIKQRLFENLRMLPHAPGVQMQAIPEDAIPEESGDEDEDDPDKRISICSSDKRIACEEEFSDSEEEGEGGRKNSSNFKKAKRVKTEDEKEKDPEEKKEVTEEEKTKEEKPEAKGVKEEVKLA
Polyamine deacetylase HDAC10, sequence (Q969S8 whole entry): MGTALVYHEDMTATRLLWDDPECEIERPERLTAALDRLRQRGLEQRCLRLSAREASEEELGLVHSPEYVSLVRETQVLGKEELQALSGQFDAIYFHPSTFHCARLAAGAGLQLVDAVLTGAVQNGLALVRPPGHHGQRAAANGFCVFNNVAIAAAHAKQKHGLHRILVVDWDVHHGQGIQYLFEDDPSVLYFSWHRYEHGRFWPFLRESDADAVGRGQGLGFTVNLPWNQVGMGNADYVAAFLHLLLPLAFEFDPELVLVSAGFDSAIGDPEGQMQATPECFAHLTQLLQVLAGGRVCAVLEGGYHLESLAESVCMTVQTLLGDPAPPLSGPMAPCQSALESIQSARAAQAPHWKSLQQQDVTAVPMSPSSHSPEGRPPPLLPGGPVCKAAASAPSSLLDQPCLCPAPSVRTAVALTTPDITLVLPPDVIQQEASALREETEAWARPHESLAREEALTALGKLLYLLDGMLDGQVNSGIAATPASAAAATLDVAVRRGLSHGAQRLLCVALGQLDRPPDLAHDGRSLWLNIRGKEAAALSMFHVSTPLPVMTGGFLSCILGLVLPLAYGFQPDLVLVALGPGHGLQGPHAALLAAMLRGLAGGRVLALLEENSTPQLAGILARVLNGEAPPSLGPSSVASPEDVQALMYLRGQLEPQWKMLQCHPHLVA

Regarding `CCCNNC(=O)c1ccc(Cn2c3ccccc3c3c(-c4ccccn4)nc4ccccc4c32)cc1`, the IC50 in data set [1] and in data set [5] was > 10 µM in each case. Also, in data set [2], the “VRT(t)” value came to 0.641 hr2. Moreover, the result in data set [3] and in data set [4] was Active. For the same compound, in data set [6], the inhibition (as a rule, the change of the read-out against control, counted positive when it falls) was determined as 14%. The Activity entry in data set [7] is reported as “Non-toxic”. In addition, in data set [8], the Tmax (as a rule, the time at which the peak concentration occurs) was determined as 4.98 min.
